The values below come from patent US10167247B2, “Solid forms of treprostinil” (United Therapeutics Corporation, priority 2013, dated 2019).

Format in all cases: physicochemical
A short description of data set [1]: Environmental stress (temperature / relative humidity), solid form by XRPD. How it is done: The mesophase treprostinil of FIG. 31 are formed, from top to bottom, from the following solutions: (1) 0.40 water activity slurry with acetone 2 days; (2) DCM slurry 60 to 30° C.; (3) 0.80 water activity slurry with isopropanol 7 days; (4) 1-propanol/water 1:1 v/v slurry ambient temperature; (5) Form B+A+mesophase 50° C. 7 days, (6) Acetonitrile slurry ambient temperature; (7) Form A 50° C. 15 hours; (8) Methanol/ethyl acetate evaporation; (9) Toluene crash precipitation from methyl ethyl ketone.
Solids were stressed in glass vials under various drying and relative humidity (RH) environments for specified times, generally monitoring weight change during stressing. Drying was done via ambient, P2O5, vacuum (ambient and elevated temperatures), and convection oven experiments, for which the only drying condition listed in the tables is the oven temperature. Ambient experiments were conducted by leaving samples exposed in a laboratory fume hood. Specific RH values were achieved by placing the sample inside sealed chambers containing saturated salt solutions or into separate chambers containing P2O5 powder for 0% RH. The salt solutions were selected and prepared based an ASTM standard procedure. For vacuum experiments, vials were covered with nylon filters to prevent potential solid loss. For the elevated temperature experiments, temperature was measured by a NIST-traceable thermometer. […]

Data set [2] in a line: Dynamic vapor sorption (DVS). Conditions: for DVS weight loss: 95 to 5% RH. On the procedure: DVS data were collected on a VTI SGA-100 Vapor Sorption Analyzer. NaCl and PVP were used as calibration standards. Samples were not dried prior to analysis. Sorption and desorption data were collected over a range from 5 to 95% RH (or 55 to 95% RH for Form B) at 10% RH increments under a nitrogen purge. The equilibrium criterion used for analysis was less than 0.0100% weight change in 5 minutes with a maximum equilibration time of 3 hours. Data were not corrected for the initial moisture content of the samples.

Data set [3] is described as follows: TG-IR heating, post-TG-IR XRPD. Conditions: heated 25-97° C. On the procedure:
Thermogravimetric infrared (TG-IR) analysis was performed on a TA Instruments thermogravimetric (TG) analyzer model 2050 interfaced to a Magna-IR 560® Fourier transform infrared (IR) spectrophotometer (Thermo Nicolet) equipped with an Ever-Glo mid/far IR source, a potassium bromide (KBr) beamsplitter, and a mercury cadmium telluride (MCT-A) detector. The IR wavelength verification was performed using polystyrene, and the TG calibration standards were nickel and Alumel™. The sample was placed in a platinum sample pan, and the pan was inserted into the TG furnace. The TG instrument was started first, immediately followed by the FT-IR instrument. The TG instrument was operated under a flow of helium at 90 and 10 cc/min for the purge and balance, respectively. The furnace was heated under helium at a rate of 20° C./minute to a final temperature of 97° C. IR spectra were collected approximately every 16 seconds for approximately 13 minutes. Each IR spectrum represents 16 co-added scans collected at a spectral resolution of 4 cm^−1. Volatiles were identified from a search of the High Resolution Nicolet Vapor Phase spectral library (v. 1990-1994).

Data set [4] in a line: Stability tests of anhydrous treprostinil on standing. How it is done:
An anhydrous form of treprostinil has been previously described, e.g., in J. Org. Chem. 2004, 69, 1890-1902. The anhydrous form is not stable at room temperature. […] A larger amount of dimers can form at higher temperatures. However, dimer formation is negligible at 5° C. Therefore, anhydrous treprostinil must be refrigerated for storage and transport. In the past, anhydrous treprostinil had to be refrigerated and shipped with ice packs to maintain low (2° C.-8° C.) temperatures.

As for `CCCCC[C@H](O)CC[C@@H]1[C@H]2Cc3cccc(OCC(=O)O)c3C[C@H]2C[C@H]1O` [Mesophase treprostinil, 2-((1R,2R,3aS,9aS)-2-hydroxy-1-((S)-3-hydroxyoctyl)-2,3,3a,4,9,9a-hexahydro-1H-cyclopenta[b]naphthalen-5-yloxy)acetic acid], in data set [1] (97% RH 12 days), the “Solid form after stress (XRPD)” value was “mesophase+weak Form B”.

Regarding `CCCCC[C@H](O)CC[C@@H]1[C@H]2Cc3cccc(OCC(=O)O)c3C[C@H]2C[C@H]1O` [Treprostinil Form C, 2-((1R,2R,3aS,9aS)-2-hydroxy-1-((S)-3-hydroxyoctyl)-2,3,3a,4,9,9a-hexahydro-1H-cyclopenta[b]naphthalen-5-yloxy)acetic acid], the DVS weight gain in data set [2] (5 to 75% RH) is 0.2% weight gain 5 to 75% RH; in data set [2] (75 to 95% RH), 4.6% weight gain 75 to 95% RH. In data set [2], the DVS weight loss is 0.5% weight loss 95 to 5% RH. Moreover, the “post-DVS XRPD (solid form after DVS)” value in data set [2] (after sorption/desorption cycle) is “B + A”. In addition, in data set [2] (equilibration at 5% RH), the “DVS weight loss upon equilibration” value is given as 0.1% weight loss upon equilibration at 5% RH.

On to `CCCCC[C@H](O)CC[C@@H]1[C@H]2Cc3cccc(OCC(=O)O)c3C[C@H]2C[C@H]1O` [Treprostinil monohydrate Form A, 2-((1R,2R,3aS,9aS)-2-hydroxy-1-((S)-3-hydroxyoctyl)-2,3,3a,4,9,9a-hexahydro-1H-cyclopenta[b]naphthalen-5-yloxy)acetic acid], for which the DVS weight gain in data set [2] (5 to 95% RH) is on record as 0.7% weight gain 5 to 95% RH. The DVS weight loss in data set [2] was 0.6% weight loss 95 to 5% RH. Besides, the “Post-TG-IR XRPD (solid form after heating)” value in data set [3] is reported as “mesophase”. Moreover, the “Solid form after stress (XRPD)” value in data set [1] (50° C. 15 hours) is on record as “mesophase”.

For `CCCCC[C@H](O)CC[C@@H]1[C@H]2Cc3cccc(OCC(=O)O)c3C[C@H]2C[C@H]1O` [Treprostinil monohydrate Form B, 2-((1R,2R,3aS,9aS)-2-hydroxy-1-((S)-3-hydroxyoctyl)-2,3,3a,4,9,9a-hexahydro-1H-cyclopenta[b]naphthalen-5-yloxy)acetic acid], the DVS weight gain in data set [2] (55 to 95% RH) is on record as 0.4% weight gain 55 to 95% RH. Further, in data set [2], the DVS weight loss is listed as 0.6% weight loss 95 to 5% RH. Further, the “DVS weight gain upon equilibration” value in data set [2] (equilibration at 55% RH) is given as 0.3% weight gain upon equilibration at 55% RH.

Take `CCCCC[C@H](O)CC[C@@H]1[C@H]2Cc3cccc(OCC(=O)O)c3C[C@H]2C[C@H]1O` [anhydrous treprostinil, 2-((1R,2R,3aS,9aS)-2-hydroxy-1-((S)-3-hydroxyoctyl)-2,3,3a,4,9,9a-hexahydro-1H-cyclopenta[b]naphthalen-5-yloxy)acetic acid]: the Dimer formation entry in data set [4] (5° C.) is listed as “negligible”. Further, the Stability entry in data set [4] (25° C., dimers formed upon standing) is given as “not stable”.
